These are literature values, as cited in patent US20240100062A1, “Methods of Treatment With an Iboga Alkaloid” (priority 2022, published 2024).

By half-life is commonly meant the time in which the quantity being followed falls by half.

For data set [1] the following is noted: in vivo; cited from earlier work.
The test system of data set [2] is N-methyl-D-aspartate, kappa and mu opioid, sigma-1 and -2, nicotinic acetylcholine, serotonin transporter, and dopamine transporter. Particulars: cited from earlier work.

In the case of Noribogaine, the half-life in data set [1] is 28 to 49 h. Further, the “Affinity for neurotransmitter receptors” value in data set [2] is on record as “moderate-to-weak affinity”.
